We go through 3 molecules from BindingDB's records for doi:10.1007/bf00165806 (UniversitÄT Heidelberg, 1987).

What is called pKi is the negative decadic logarithm of the Ki, by convention in mol/L.

One assay deals with Adenosine receptor A2a (Homo sapiens, UniProt P29274).
For another assay, the target named is T1, Adenosine receptor A1 (Bos taurus, UniProt P28190).
T1 sequence (P28190 whole entry): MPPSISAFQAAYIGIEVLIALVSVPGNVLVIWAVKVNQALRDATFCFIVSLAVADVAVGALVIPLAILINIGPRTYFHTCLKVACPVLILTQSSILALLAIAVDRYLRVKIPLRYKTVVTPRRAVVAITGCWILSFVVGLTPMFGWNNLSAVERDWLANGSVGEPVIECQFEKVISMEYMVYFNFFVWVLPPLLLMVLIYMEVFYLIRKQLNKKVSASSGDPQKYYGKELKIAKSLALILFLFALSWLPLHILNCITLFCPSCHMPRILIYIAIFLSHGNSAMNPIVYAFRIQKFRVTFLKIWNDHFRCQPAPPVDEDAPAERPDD

pKi: −log10 of the molar value.

Chain of Adenosine receptor A2a (P29274 whole entry): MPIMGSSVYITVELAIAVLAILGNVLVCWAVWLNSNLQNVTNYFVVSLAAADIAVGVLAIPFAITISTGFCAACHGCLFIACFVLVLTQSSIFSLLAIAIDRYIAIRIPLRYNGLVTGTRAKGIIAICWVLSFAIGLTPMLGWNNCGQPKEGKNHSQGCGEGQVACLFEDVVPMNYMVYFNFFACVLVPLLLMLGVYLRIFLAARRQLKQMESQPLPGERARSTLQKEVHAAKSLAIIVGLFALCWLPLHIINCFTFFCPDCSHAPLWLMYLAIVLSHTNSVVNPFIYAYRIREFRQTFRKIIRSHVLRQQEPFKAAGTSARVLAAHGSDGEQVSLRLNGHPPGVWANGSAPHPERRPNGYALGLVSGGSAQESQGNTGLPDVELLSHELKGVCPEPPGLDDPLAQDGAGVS

In the case of `CCn1c(=O)c2[nH]c(-c3ccccc3)nc2n(CC)c1=O` [1,3-Diethyl-8-phenyl-3,7-dihydro-purine-2,6-dione], at Adenosine receptor A2a, the pKi is 6.68.

Turning to `CCCn1c(=O)c2[nH]c(C3CCCC3)nc2n(CCC)c1=O` [DPCPX], the pKi on Adenosine receptor A1 was 10.15.

Regarding `CCCn1c(=O)c2[nH]c(-c3ccc(OCC(=O)NCCN)cc3)nc2n(CCC)c1=O` [N-(2-Amino-ethyl)-2-[4-(2,6-dioxo-1,3-dipropyl-2,3,6,9-tetrahydro-1H-purin-8-yl)-phenoxy]-acetamide], the pKi on Adenosine receptor A1 was 10.10.
